# Test results as given in patent US20220025334A1, “SYNTHETIC FOOD COMPOSITIONS” (Wild Type, Inc., priority 2018, published 2022).
# “Also recorded” adds a separate entry of the source.
# Test system: duck hepatocytes
# Experiment: Induction of steatosis in cultured duck hepatocytes by fatty acid incubation
# Assay type: cell-based
structure (smiles),measurement,setting,value
CCCCC/C=C\C/C=C\CCCCCCCC(=O)O [linoleic acid],dose response: linoleic acid concentration versus percentage of hepatocytes having steatosis,"0, 0.1, 0.25, 0.5, 1, 2 μM linoleic acid (FIG. 16B)",corresponding increase in the percentage of hepatocytes with steatosis
same,induction of steatosis (accumulation of intracellular lipid-containing vesicles),"2 μM linoleic acid vs untreated control, duck hepatocytes (FIG. 16A)",successful induction of steatosis; also recorded: successfully induced to undergo steatosis
same,percentage of steatotic hepatocytes,"2 μM linoleic acid, duck hepatocytes (FIG. 16B)",above 85%
